Measured values as given in US7709471B2, “Compounds” (AstraZeneca AB, priority 2006, dated 2010).

These compounds were tested on human colon tumour cell line HT29 (assay: Cellular Assay (phosphohistone H3 Ser10 mitotic marker, HT29)). Conditions: HT-29, 24 h, HT29 cells, read-out: IC50 (cellular assay, phosphohistone H3).
Assay type: cell-based
Experimental: Chromosome condensation in mitosis is accompanied by phosphorylation of histone H3 on serine 10.
After 24 hours, cells were fixed in 3.7% (v/v) formaldehyde then permeabilised and blocked for 10 minutes in 100 μl 0.5% (v/v) Triton X-100, 1% (w/v) bovine serum albumin (BSA) in phosphate buffered saline (PBS). […] The raw assay data were analysed by non-linear regression analysis and used to determine an IC50 value for each compound.
For `COc1cc(C(=O)NCCCN(C)C)ccc1Nc1ncc2c(n1)N(C1CCCC1)CC(C)(C)C(=O)N2C` [Example 357, 4-[(2-cyclopentyl-4,4,6-trimethyl-5-oxo-2,6,9,11-tetrazabicyclo[5.4.0]undeca-7,9,11-trien-10-yl)amino]-N-(3-dimethylaminopropyl)-3-methoxy-benzamide], the IC50 was < 0.3 µM. `COc1cc(C(=O)NCCN2CCCC2)ccc1Nc1ncc2c(n1)N(C1CCCC1)CC(C)(C)C(=O)N2C` [Example 358, 4-[(2-cyclopentyl-4,4,6-trimethyl-5-oxo-2,6,9,11-tetrazabicyclo[5.4.0]undeca-7,9,11-trien-10-yl)amino]-3-methoxy-N-(2-pyrrolidin-1-ylethyl)benzamide] was tested, and the IC50 was < 0.3 µM. With `COc1cc(C(=O)NCCN(C)C)ccc1Nc1ncc2c(n1)N(C1CCCC1)CC(C)(C)C(=O)N2C` [Example 359, 4-[(2-cyclopentyl-4,4,6-trimethyl-5-oxo-2,6,9,11-tetrazabicyclo[5.4.0]undeca-7,9,11-trien-10-yl)amino]-N-(2-dimethylaminoethyl)-3-methoxy-benzamide] the IC50 was < 0.3 µM. For `COc1cc(C(=O)NC2CCC(N3CCCC3)CC2)ccc1Nc1ncc2c(n1)N(C1CCCC1)CC(C)(C)C(=O)N2C` (stereo not shown) [Example 360, 4-[(2-cyclopentyl-4,4,6-trimethyl-5-oxo-2,6,9,11-tetrazabicyclo[5.4.0]undeca-7,9,11-trien-10-yl)amino]-3-methoxy-N-(4-pyrrolidin-1-ylcyclohexyl)benzamide], the IC50 was < 0.3 µM. `COc1cc(C(=O)NC2CCN(C)CC2)c(F)cc1Nc1ncc2c(n1)N(C1CCCC1)CC(C)(C)C(=O)N2C` [Example 361, 4-[(2-cyclopentyl-4,4,6-trimethyl-5-oxo-2,6,9,11-tetrazabicyclo[5.4.0]undeca-7,9,11-trien-10-yl)amino]-2-fluoro-5-methoxy-N-(1-methyl-4-piperidyl)benzamide] was tested, and the IC50 was < 0.3 µM. `CN(C)CCCNC(=O)c1ccc(Nc2ncc3c(n2)N(C2CCCC2)CC(C)(C)C(=O)N3C)c(Cl)c1` [Example 362, 3-chloro-4-[(2-cyclopentyl-4,4,6-trimethyl-5-oxo-2,6,9,11-tetrazabicyclo[5.4.0]undeca-7,9,11-trien-10-yl)amino]-N-(3-dimethylaminopropyl)benzamide] was tested, and the IC50 was < 0.3 µM. In the case of `COc1cc(C(=O)NC2CCC(N(C)C)CC2)ccc1Nc1ncc2c(n1)N(C1CCCC1)CC(C)(C)C(=O)N2C` (stereo not shown) [Example 363, 4-[(2-cyclopentyl-4,4,6-trimethyl-5-oxo-2,6,9,11-tetrazabicyclo[5.4.0]undeca-7,9,11-trien-10-yl)amino]-N-(4-dimethylaminocyclohexyl)-3-methoxy-benzamide], the IC50 is reported as < 0.3 µM. In the case of `COc1cc(C(=O)N[C@@H]2CCN(C)C2)c(F)cc1Nc1ncc2c(n1)N(C1CCCC1)CC(C)(C)C(=O)N2C` [Example 364, 4-[(2-cyclopentyl-4,4,6-trimethyl-5-oxo-2,6,9,11-tetrazabicyclo[5.4.0]undeca-7,9,11-trien-10-yl)amino]-2-fluoro-5-methoxy-N-[(3R)-1-methylpyrrolidin-3-yl]benzamide], the IC50 is reported as < 0.3 µM. `CN1C(=O)C(C)(C)CN(C2CCCC2)c2nc(Nc3cc(F)c(C(=O)NC4CCC(N(C)C)CC4)cc3Cl)ncc21` (stereo not shown) [Example 366, 5-chloro-4-[(2-cyclopentyl-4,4,6-trimethyl-5-oxo-2,6,9,11-tetrazabicyclo[5.4.0]undeca-7,9,11-trien-10-yl)amino]-N-(4-dimethylaminocyclohexyl)-2-fluoro-benzamide] was tested, and the IC50 was < 0.3 µM. `CN1C(=O)C(C)(C)CN(C2CCCC2)c2nc(Nc3ccc(C(=O)NCC(C)(C)CN4CCCC4)cc3Cl)ncc21` [Example 367, 3-chloro-4-[(2-cyclopentyl-4,4,6-trimethyl-5-oxo-2,6,9,11-tetrazabicyclo[5.4.0]undeca-7,9,11-trien-10-yl)amino]-N-(2,2-dimethyl-3-pyrrolidin-1-yl-propyl)benzamide] was tested, and the IC50 was < 0.3 µM. In the case of `COc1cc(C(=O)NCC(C)(C)CN2CCCC2)ccc1Nc1ncc2c(n1)N(C1CCCC1)CC(C)(C)C(=O)N2C` [Example 368, 4-[(2-cyclopentyl-4,4,6-trimethyl-5-oxo-2,6,9,11-tetrazabicyclo[5.4.0]undeca-7,9,11-trien-10-yl)amino]-N-(2,2-dimethyl-3-pyrrolidin-1-yl-propyl)-3-methoxy-benzamide], the IC50 is reported as < 0.3 µM. With `CCN1CC[C@@H](NC(=O)c2ccc(Nc3ncc4c(n3)N(C3CCCC3)CC(C)(C)C(=O)N4C)c(OC)c2)C1` [Example 369, 4-[(2-cyclopentyl-4,4,6-trimethyl-5-oxo-2,6,9,11-tetrazabicyclo[5.4.0]undeca-7,9,11-trien-10-yl)amino]-N-[(3R)-1-ethylpyrrolidin-3-yl]-3-methoxy-benzamide] the IC50 was < 0.3 µM. For `COc1cc(C(=O)NC2CCC(N(C)C)CC2)c(F)cc1Nc1ncc2c(n1)N(C1CCCC1)CC(C)(C)C(=O)N2C` (stereo not shown) [Example 372, 4-[(2-cyclopentyl-4,4,6-trimethyl-5-oxo-2,6,9,11-tetrazabicyclo[5.4.0]undeca-7,9,11-trien-10-yl)amino]-N-(4-dimethylaminocyclohexyl)-2-fluoro-5-methoxy-benzamide], the IC50 was < 0.3 µM. With `COc1cc(C(=O)NC2CCC(N3CCC3)CC2)ccc1Nc1ncc2c(n1)N(C1CCCC1)CC(C)(C)C(=O)N2C` (stereo not shown) [Example 374, N-[4-(azetidin-1-yl)cyclohexyl]-4-[(2-cyclopentyl-4,4,6-trimethyl-5-oxo-2,6,9,11-tetrazabicyclo[5.4.0]undeca-7,9,11-trien-10-yl)amino]-3-methoxy-benzamide] the IC50 was < 0.3 µM. With `CCC1(CC)CN(C2CCCC2)c2nc(Nc3ccc(C(=O)NCC(C)(C)CN4CCCC4)cc3OC)ncc2N(C)C1=O` [Example 376, 4-[(2-cyclopentyl-4,4-diethyl-6-methyl-5-oxo-2,6,9,11-tetrazabicyclo[5.4.0]undeca-7,9,11-trien-10-yl)amino]-N-(2,2-dimethyl-3-pyrrolidin-1-yl-propyl)-3-methoxy-benzamide] the IC50 was < 0.3 µM. `CCN1CCC(NC(=O)c2cc(OC)c(Nc3ncc4c(n3)N(C3CCCC3)CC(CC)(CC)C(=O)N4C)cc2F)CC1` [Example 379, 4-[(2-cyclopentyl-4,4-diethyl-6-methyl-5-oxo-2,6,9,11-tetrazabicyclo[5.4.0]undeca-7,9,11-trien-10-yl)amino]-N-(1-ethyl-4-piperidyl)-2-fluoro-5-methoxy-benzamide] was tested, and the IC50 was < 0.3 µM. In the case of `CCC1(CC)CN(C2CCCC2)c2nc(Nc3ccc(C(=O)NC4CCN(C)CC4)cc3OC)ncc2N(C)C1=O` [Example 380, 4-[(2-cyclopentyl-4,4-diethyl-6-methyl-5-oxo-2,6,9,11-tetrazabicyclo[5.4.0]undeca-7,9,11-trien-10-yl)amino]-3-methoxy-N-(1-methyl-4-piperidyl)benzamide], the IC50 is reported as < 0.3 µM. For `COc1cc(C(=O)NCCN2CCCC2)ccc1Nc1ncc2c(n1)N(C1CCCC1)CC1(CC1)C(=O)N2C` [Example 384, 4-(9′-cyclopentyl-5′-methyl-6′-oxo-5′,6′,8′,9′-tetrahydrospiro[cyclopropane-1,7′-pyrimido[5,4-b][1,4]diazepine]-2′-ylamino)-3-methoxy-N-(2-pyrrolidin-1-ylethyl)benzamide], the IC50 was < 0.3 µM. `CN1C(=O)C2(CC2)CN(C2CCCC2)c2nc(Nc3ccc(C(=O)NC4C[C@H]5CCC[C@@H](C4)N5C)cc3F)ncc21` (stereo partly drawn) [Example 388, 4-(9′-cyclopentyl-5′-methyl-6′-oxo-5′,6′,8′,9′-tetrahydrospiro[cyclopropane-1,7′-pyrimido[5,4-b][1,4]diazepine]-2′-ylamino)-3-fluoro-N-[(1S,5R)-9-methyl-9-azabicyclo[3.3.1]non-7-yl]benzamide] was tested, and the IC50 was < 0.3 µM. In the case of `CN1CCC(NC(=O)c2cc(Cl)c(Nc3ncc4c(n3)N(C3CCCC3)CC3(CC3)C(=O)N4C)cc2F)CC1` [Example 389, 5-chloro-4-(9′-cyclopentyl-5′-methyl-6′-oxo-5′,6′,8′,9′-tetrahydrospiro[cyclopropane-1,7′-pyrimido[5,4-b][1,4]diazepine]-2′-ylamino)-2-fluoro-N-(1-methyl-4-piperidyl)benzamide], the IC50 is reported as < 0.3 µM. In the case of `CN(C)CCNC(=O)c1ccc(Nc2ncc3c(n2)N(C2CCCC2)CC2(CC2)C(=O)N3C)c(Cl)c1` [Example 390, 3-chloro-4-(9′-cyclopentyl-5′-methyl-6′-oxo-5′,6′,8′,9′-tetrahydrospiro[cyclopropane-1,7′-pyrimido[5,4-b][1,4]diazepine]-2′-ylamino)-N-(2-dimethylaminoethyl)benzamide], the IC50 is reported as < 1 µM. `CN1C(=O)C2(CC2)CN(C2CCCC2)c2nc(Nc3ccc(C(=O)NCCN4CCCC4)cc3Cl)ncc21` [Example 391, 3-chloro-4-(9′-cyclopentyl-5′-methyl-6′-oxo-5′,6′,8′,9′-tetrahydrospiro[cyclopropane-1,7′-pyrimido[5,4-b][1,4]diazepine]-2′-ylamino)-N-(2-pyrrolidin-1-ylethyl)benzamide] was tested, and the IC50 was < 0.3 µM. With `CN(C)CC(C)(C)CNC(=O)c1ccc(Nc2ncc3c(n2)N(C2CCCC2)CC2(CC2)C(=O)N3C)c(Cl)c1` [Example 392, 3-chloro-4-(9′-cyclopentyl-5′-methyl-6′-oxo-5′,6′,8′,9′-tetrahydrospiro[cyclopropane-1,7′-pyrimido[5,4-b][1,4]diazepine]-2′-ylamino)-N-(3-dimethylamino-2,2-dimethyl-propyl)benzamide] the IC50 was < 0.3 µM. With `CCN1CCC(NC(=O)c2cc(Cl)c(Nc3ncc4c(n3)N(C3CCCC3)CC3(CC3)C(=O)N4C)cc2F)CC1` [Example 393, 5-chloro-4-(9′-cyclopentyl-5′-methyl-6′-oxo-5′,6′,8′,9′-tetrahydrospiro[cyclopropane-1,7′-pyrimido[5,4-b][1,4]diazepine]-2′-ylamino)-N-(1-ethyl-4-piperidyl)-2-fluoro-benzamide] the IC50 was < 0.3 µM. With `CN1C(=O)C2(CC2)CN(C2CCCC2)c2nc(Nc3cc(F)c(C(=O)NC4CCC(N(C)C)CC4)cc3Cl)ncc21` (stereo not shown) [Example 394, 5-chloro-4-(9′-cyclopentyl-5′-methyl-6′-oxo-5′,6′,8′,9′-tetrahydrospiro[cyclopropane-1,7′-pyrimido[5,4-b][1,4]diazepine]-2′-ylamino)-N-(4-dimethylaminocyclohexyl)-2-fluoro-benzamide] the IC50 was < 0.3 µM.
